Measured values taken from paper PMC1716192, “A Plant-Derived Morphinan as a Novel Lead Compound Active against Malaria Liver Stages” (PLoS Medicine, 2006).

Columns and labels:
[1] = test system: P. falciparum (NF 54 strain) hepatic stages; assay: In vitro assay for P. falciparum liver stage inhibition in primary human hepatocytes; assay type: cell-based; settings: for IC50 / IC90: 120 h
Procedure: P. yoelii (265 BY strain) and P. falciparum (NF 54 strain) sporozoites were obtained by dissection of infected Anopheles stephensi salivary glands. Primary mouse hepatocytes were isolated as previously described and seeded in eight-well Lab-Tek plastic chamber slides (VWR, Fontenay-sous-Bois, France) previously coated with rat-tail collagen I (BD Biosciences, Le Pont de Claix, France) at a density of 10^5 cells per well. Mouse hepatocytes were cultured at 37 °C in 5% CO2 in William's E medium supplemented with 10% fetal calf serum, 1% L-glutamine, 1% sodium pyruvate, 1% insulin-transferrin-selenium, 1% nonessential amino acids, and 1% penicillin-streptomycin (all from Invitrogen, Cergy-Pontoise, France), for 24 h before inoculation of P. yoelii sporozoites (10^5 per well). Human liver fragments were collected following informed consent provided from patients undergoing a partial hepatectomy. The collection and use of these tissues were undertaken in accordance with French Government ethical regulations. Primary human hepatocytes were isolated from the healthy parts of these liver biopsies as previously described. Human hepatocytes were seeded in LabTek plastic chamber slides coated with collagen, at a density of 1.8 × 10^5 cells per well and cultured at 37 °C in 5% CO2 in the same medium as above, supplemented with 10^−7 M dexamethasone (Sigma) and 2% DMSO after complete cell adherence (12–24 h), for at least 48 h before inoculation of P. falciparum sporozoites (10^5 per well). For a standard assay, the plant extract, the purified compound, or primaquine was solubilized in DMSO, further diluted in culture medium (equal DMSO concentrations of <0.3% per well), and then added to hepatocyte cultures at the time of sporozoite inoculation. Three hours later, after sporozoite penetration into hepatocytes, cultures were washed and further incubated in the presence of the drug. Culture medium containing the appropriate drug concentration was changed daily until 48 h for P. yoelii, or until 5 d for P. falciparum. Parasites were quantified on the last day of incubation. For the in vitro timing experiments, tazopsine treatment of P. yoelii and P. falciparum cultures was undertaken for different periods during the cultivation: 0 h to 3 h, 3 h to 24 h, or 24 h to 48 h after P. yoelii sporozoite inoculation (quantification at 48 h), or 0 h to 2 d, or 3 d to 5 d after P. falciparum sporozoite inoculation (quantification at 5 d). […] Cells were stained with Evans Blue (0.4%), and parasites and cells nuclei were stained with 1 μg/ml of diamidino-phenylindole (DAPI; Sigma). Parasite numbers were counted under a fluorescence microscope with a 25× light microscope objective. IC50 values, the drug concentration at which a 50% reduction in the number of parasites was observed, as compared to the number in the DMSO control cultures, were derived from two independent experiments in which each concentration was tested in triplicate wells.
(§1) IC50 and TC50 were calculated by nonlinear regression using four-parameter logistic curves on the SigmaPlot 10.0 software (http://www.systat.com). Each IC50 or TC50 is expressed as a mean between two independent experiments, followed by the standard error of the mean.

[2] = test system: primary mouse hepatocytes; assay: In vitro assay for cell viability (neutral red), mouse hepatocytes; assay type: cell-based; settings: 48 h drug exposure
Procedure: Primary hepatocytes of mice or humans were prepared as above and seeded in 96-well plates coated with collagen, at a density of 5 × 10^4 and 7 × 10^4 cells per well, respectively. Drugs were added to the culture medium, which was changed daily after 24 h or 48 h of incubation for mouse and human hepatocytes, respectively. After 48 h of drug exposure (mouse hepatocytes) or 5 d (human hepatocytes), 50 μl of neutral red (Sigma) at 0.02% in phosphate-buffered saline (PBS) were added per well and incubated for 24 additional hours. Cultures were then washed with PBS and the neutral red extracted with 1% SDS from viable cells and quantified by measuring the OD540 on a microplate autoreader photometer (BioTek Instruments, Winooski, Vermont, United States).
as §1

[3] = test system: P. falciparum clone 3D7 (chloroquine sensitive) erythrocytic stages; assay: In vitro assay for P. falciparum blood stages inhibition, clone 3D7; assay type: cell-based
Procedure: (§2) P. falciparum clone 3D7 (chloroquine sensitive) and clone FCR3 (chloroquine resistant) erythrocytic stages were cultured as described, and drug antiplasmodial activity was assessed by the standard method with minor modifications. Briefly, the compounds tazopsine and NCP-tazopsine solubilized in DMSO were further diluted in RPMI before adding to parasite cultures (0.5% parasitemia, mainly young trophozoites, and 1.8% final hematocrit), in a 2-fold dilution series. Plates were maintained for 24 h at 37 °C in 5% CO2. Then 0.5 μCi of [^3H]-hypoxanthine was added to each well, and cultures were incubated for a further 24 h. The growth inhibition was determined by comparison of the radioactivity incorporated into the treated cultures with that into the control cultures, by liquid scintillation counting.

[4] = test system: P. falciparum clone FCR3 (chloroquine resistant) erythrocytic stages; assay: In vitro assay for P. falciparum blood stages inhibition, clone FCR3; assay type: cell-based
Procedure: as §2

[5] = test system: P. yoelii blood stages; assay: In vivo assay: P. yoelii blood stages in mice
Procedure: In order to test for inhibitory activity against P. yoelii blood stages, four groups of five naive mice were inoculated (intraperitoneally) with 10^6 P. yoelii–infected red blood cells on day 0. Three hours later, one group was treated with tazopsine at 100 mg/kg, another with NCP-tazopsine at 200 mg/kg, whereas the other two groups acted as controls (respectively, water and 10% Tween 80). The doses were repeated daily until day +3. For the group treated with NCP- tazopsine and its control group, the animals were anesthetised 2 h following the administration of the last dose (day +3), and placed for 30 min over a cage with 100 female laboratory-bred A. stephensi. Oocysts were enumerated in 30 mosquito midguts dissected 8 d later, and the number of sporozoites in the salivary glands dissected from 30 insects was ascertained a further 7 d later. All the experiments were performed in two independent duplicates, and enumeration of parasites in blood smears and mosquitoes was conducted in a blinded fashion.

[6] = Plasmodium falciparum, Hepatocyte

Structure (SMILES) | IC50 [1, 6] [µM] | IC90 [1, 6] [µM] | TC50 [2] [µM] | effect on multiplication of cultured erythrocytic P. falciparum ([3]; 3D7 line, up to concentrations of 600 μM) | effect on multiplication of cultured erythrocytic P. falciparum ([4]; FCR3 line, up to concentrations of 600 μM) | effect on blood stage parasite multiplication ([5]; fully protective dose (200 mg/kg), mice inoculated with P. yoelii-infected blood (unpublished data)) | phase of hepatic development most susceptible to inhibition ([1]; P. falciparum, exposure 0 h-2 d or 3 d-5 d) | concentration at which parasite development fully inhibited ([1]; P. falciparum-infected primary human hepatocyte cultures) [µM] | IC80 [1, 6] [µM] | size of surviving hepatic parasites versus control cultures ([1]; suboptimal inhibitory concentrations, 5 d) | IC50 ([3]; Plasmodium falciparum, 3D7) [µM] | IC50 ([4]; Plasmodium falciparum, FCR3) [µM] | inhibition of the erythrocytic multiplication cycle ([5]; 100 mg/kg daily, mice challenged with P. yoelii-infected blood (unpublished data))
COC1=C2[C@@H]3[C@H](O)c4ccc(OC)c(O)c4[C@]2(CCN3C2CCCC2)C[C@H](O)[C@@H]1O [NCP-tazopsine, N-cyclopentyl-tazopsine] | 42.4 | 95.4 ± 6.6 | 150.5 ± 9.5 | did not have any detectable effect | did not have any detectable effect | no effect | – | – | – | – | – | – | –
COC1=C2[C@H]3NCC[C@]2(C[C@H](O)[C@@H]1O)c1c(ccc(OC)c1O)[C@H]3O [Tazopsine, tazopsine] | 4.2 ± 0.1 | 18.3 ± 2.8 | 43.7 ± 1.6 | – | – | – | most susceptible to inhibition during the early stage of trophozoite development | ≥ 28 | 10 | significantly smaller | 4.7 ± 0.9 | 5.7 ± 2.1 | No significant inhibition
